# In US4808727A, “Imidazolium hydrogen carbonates” (Hoffmann-LaRoche Inc., priority 1986, dated 1989):
# Experiments:
# Litomosoides carinii = test: filaricidal activity in cotton rats infected with Litomosoides carinii (dead adult filaria in pleural cavity); format: in vivo, Litomosoides carinii in cotton rats (Sigmodon hispidus); details: sc, 1008 h, s.c., infected cotton rats treated 14 weeks after infection, dissected 42 days after treatment, dosage at which 90% of worms are dead, Probit analysis
# Protocol: (§1) The filaricidal activity of the compounds of formula III can be determined, for example, on cotton rats (Sigmodon hispidus) which have been infected with Litomosoides carinii. The infection with L. carinii is transmitted by the blood-sucking mite (Bdellonyssus bacoti) in which the development of the microfilaria to infectious larvae takes place. The cotton rats are infected by exposing them to bites of infected mites. Fourteen (14) weeks after the infection, groups of 2-4 animals are treated subcutaneously with the compound to be tested. Forty-two (42) days after treatment with the compound to be tested, the experimental animals are dissected, whereby the adult filaria are removed from the pleural cavity. Living and dead or encapsulated worms are separated from one another and weighed. The filaricidal activity is expressed as the percentage proportion of dead macrofilaria per treatment group. The ED90 is then determined by means of Probit analysis using the values from different dosage groups. The ED90 is that dosage at which 90% of the worms removed from the pleural cavity are dead. In the following Table, there are compiled the results which have been obtained in the previously described test with representative members of the class of compound defined by formula III. Moreover, the Table contains data concerning the acute toxicity of some of these compounds in mg/per kg in the case of single oral administration to mice.
# [1] = acute toxicity, single oral administration to mice; details: mouse, in vivo, p.o.
# Protocol: as §1, with “Moreover, the Table contains data concerning the acute toxicity of some of these compounds in mg/per kg in the case of single oral administration to mice.” left out
SMILES,ED90 (Litomosoides carinii) [mg/kg],LD50 [1] [mg/kg]
"Cc1n(N=Cc2ccc(N(C)C)cc2)cc[n+]1N=Cc1ccc(N(C)C)cc1.[Cl-] [Compound C, 1,3-bis[[p-(dimethylamino)benzylidene]amino]-2-methylimidazolium chloride]",0.85,–
"CN(C)C=Cc1n(N=Cc2ccc(N(C)C)cc2)cc[n+]1N=Cc1ccc(N(C)C)cc1.[Cl-] [Compound A, 1,3-bis[[p-(dimethylamino)benzylidene]amino]-2-[2-(dimethylamino)vinyl]imidazolium chloride]",1,312 to 625
"CC(C)c1n(N=Cc2ccc(N(C)C)cc2)cc[n+]1N=Cc1ccc(N(C)C)cc1.[Cl-] [Compound B, 1,3-bis[[p-(dimethylamino)benzylidene]amino]-2-isopropyl-imidazolium chloride]",0.5,–
"CN(C)c1ccc(C=Nn2cc[n+](N=Cc3ccc(N(C)C)cc3)c2-c2ccccc2)cc1.[Cl-] [Compound D, 1,3-bis[[p-(dimethylamino)benzylidene]amino]-2-phenylimidazolium chloride]",< 1,1250 to 2500
